For orientation: IC50 means the concentration at which inhibition is half-maximal.

Experiment [1] deals with human endometrial cancer cell strain AN3CA. The experiment in a line: Cell growth inhibition test (MTT), AN3CA. The class given is cell-based. The following applies: AN3-CA, 72 h, 3 days culture, read-out: concentration exhibiting anti-cell effect (GI50). In outline: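 Seed 5000/1000/5000 cells per well (AN3CA/IGROV1/HT29); add compound next day; culture 3 d, 37° C, 5% CO2; MTT 4 h, DMSO, A540. T/C % vs pre-dose baseline; GI50 from bracketing concentrations.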

Experiment [2] addresses T1, human mTOR (His-tagged mTOR (1362C)) (Homo sapiens, UniProt P42345).
T1 construct: the 1362 to 2549 amino acid portion on the C terminus side of human mTOR; His tag (N); made in house
The experiment in a line: mTOR kinase activity inhibition assay. The class given is biochemical. The following applies: HTRF, read-out: IC50 against mTOR. A digest of the protocol: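 Crude His-tagged mTOR (aa 1362–2549) from stable HEK293 cells, with 8 μg/ml biotinylated peptide in 50 mM HEPES pH 7.5, 20 mM MnCl2; compound diluted in 20 μM ATP solution, reaction 3 h at room temperature. Phospho-peptide detected by HTRF (anti-phospho-S6K Thr389 cryptate/streptavidin-XL665, overnight at 4°C), 665/620 nm ratio. IC50 derived from curve fit of % inhibition.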

T1 sequence (P42345 1362-2549): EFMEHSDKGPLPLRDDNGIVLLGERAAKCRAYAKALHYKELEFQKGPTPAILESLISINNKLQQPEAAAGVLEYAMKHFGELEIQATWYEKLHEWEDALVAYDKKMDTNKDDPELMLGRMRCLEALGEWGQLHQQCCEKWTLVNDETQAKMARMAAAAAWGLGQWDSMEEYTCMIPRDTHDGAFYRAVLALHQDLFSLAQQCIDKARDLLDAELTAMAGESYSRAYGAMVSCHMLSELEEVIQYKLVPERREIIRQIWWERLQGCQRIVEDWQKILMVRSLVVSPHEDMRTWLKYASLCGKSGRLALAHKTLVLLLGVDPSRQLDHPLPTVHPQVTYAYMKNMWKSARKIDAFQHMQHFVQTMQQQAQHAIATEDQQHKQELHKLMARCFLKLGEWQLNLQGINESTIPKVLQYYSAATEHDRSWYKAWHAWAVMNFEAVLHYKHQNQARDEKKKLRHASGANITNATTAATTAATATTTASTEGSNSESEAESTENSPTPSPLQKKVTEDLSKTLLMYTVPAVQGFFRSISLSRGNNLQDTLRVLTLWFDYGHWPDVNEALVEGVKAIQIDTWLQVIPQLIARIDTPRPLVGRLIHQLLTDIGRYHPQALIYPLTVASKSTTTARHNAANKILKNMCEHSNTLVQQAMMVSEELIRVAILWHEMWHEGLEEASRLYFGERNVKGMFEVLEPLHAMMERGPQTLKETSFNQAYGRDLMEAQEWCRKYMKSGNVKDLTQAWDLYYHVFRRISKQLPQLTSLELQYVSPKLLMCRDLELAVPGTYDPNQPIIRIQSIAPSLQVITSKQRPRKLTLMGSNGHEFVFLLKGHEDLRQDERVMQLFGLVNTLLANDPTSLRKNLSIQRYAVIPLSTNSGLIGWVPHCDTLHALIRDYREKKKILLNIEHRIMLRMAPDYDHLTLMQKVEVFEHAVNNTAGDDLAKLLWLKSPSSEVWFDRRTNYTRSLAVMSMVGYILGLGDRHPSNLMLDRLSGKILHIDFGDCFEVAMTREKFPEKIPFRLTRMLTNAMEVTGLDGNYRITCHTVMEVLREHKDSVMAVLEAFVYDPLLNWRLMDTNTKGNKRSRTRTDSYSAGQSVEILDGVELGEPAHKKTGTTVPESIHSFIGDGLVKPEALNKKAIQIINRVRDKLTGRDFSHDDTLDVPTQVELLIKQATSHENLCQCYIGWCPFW

Turning to `C[C@H](O)C(=O)N1CCN(c2nc3c(N4CCOCC4)nc(-c4cnc(N)nc4)nc3n2CC(F)(F)F)C[C@@H]1C` [Example 109, (2S)-1-{(2S)-4-[2-(2-Aminopyrimidin-5-yl)-6-morpholin-4-yl-9-(2,2,2-trifluoroethyl)-9H-purin-8-yl]-2-methylpiperazin-1-yl}-1-oxopropan-2-ol], the GI50 in experiment [1] was no more than 5000 nM. Also, the IC50 in experiment [2] is less than 10 nM.

In the case of `C[C@H](O)C(=O)N1CCN(c2nc3c(N4CCOCC4)nc(-c4cnc(N)nc4)nc3n2CC(F)(F)F)C[C@H]1C` [Example 110, (2S)-1-{(2R)-4-[2-(2-Aminopyrimidin-5-yl)-6-morpholin-4-yl-9-(2,2,2-trifluoroethyl)-9H-purin-8-yl]-2-methylpiperazin-1-yl}-1-oxopropan-2-ol], in experiment [1], the GI50 was no more than 5000 nM. For the same compound, the 50% inhibitory concentration (IC50) in experiment [2] was less than 10 nM.

`C[C@H]1CN(c2nc3c(N4CCOCC4)nc(-c4cnc(N)nc4)nc3n2CC(F)(F)F)CCN1C=O` [Example 111, (2S)-4-[2-(2-Aminopyrimidin-5-yl)-6-morpholin-4-yl-9-(2,2,2-trifluoroethyl)-9H-purin-8-yl]-2-methylpiperazine-1-carboaldehyde]: the GI50 in experiment [1] is no more than 5000 nM. In experiment [2], the 50% inhibitory concentration (IC50) was less than 10 nM.

For `C[C@@H]1CN(c2nc3c(N4CCOCC4)nc(-c4cnc(N)nc4)nc3n2CC(F)(F)F)CCN1C=O` [Example 112, (2R)-4-[2-(2-Aminopyrimidin-5-yl)-6-morpholin-4-yl-9-(2,2,2-trifluoroethyl)-9H-purin-8-yl]-2-methylpiperazine-1-carboaldehyde], the GI50 in experiment [1] was no more than 5000 nM. Moreover, in experiment [2], the 50% inhibitory concentration (IC50) is less than 10 nM.

Regarding `C[C@@H](O)C(=O)N1CCN(c2nc3c(N4CCOCC4)nc(-c4cnc(N)nc4)nc3n2CC2CC2)C[C@@H]1C` [Example 113, (2R)-1-{(2S)-4-[2-(2-Aminopyrimidin-5-yl)-9-(cyclopropylmethyl)-6-morpholin-4-yl-9H-purin-8-yl]-2-methylpiperazin-1-yl}-1-oxopropan-2-ol], in experiment [1], the GI50 was no more than 5000 nM. In experiment [2], the concentration for half-maximal inhibition (IC50) was less than 10 nM.

For `C[C@@H]1CN(c2nc3c(N4CCOCC4)nc(-c4cnc(N)nc4)nc3n2CC2CC2)CCN1C(=O)[C@@H](C)O` [Example 114, (2R)-1-{(2R)-4-[2-(2-Aminopyrimidin-5-yl)-9-(cyclopropylmethyl)-6-morpholin-4-yl-9H-purin-8-yl]-2-methylpiperazin-1-yl}-1-oxopropan-2-ol], the GI50 in experiment [1] was no more than 5000 nM. Also, in experiment [2], the IC50 lay within 10 to 30 nM.

On to `CC(=O)N1[C@H](C)CN(c2nc3c(N4CCOCC4)nc(-c4cnc(N)nc4)nc3n2CC(F)(F)F)C[C@@H]1C` [Example 115, 5-[8-(4-Acetyl-cis-3,5-dimethylpiperazin-1-yl)-6-morpholin-4-yl-9-(2,2,2-trifluoroethyl)-9H-purin-2-yl]pyrimidin-2-amine], for which, in experiment [1], the GI50 was no more than 5000 nM. Besides, the half-inhibitory concentration (IC50) in experiment [2] was less than 10 nM.

As for `C[C@@H]1CN(c2nc3c(N4CCOCC4)nc(-c4cnc(N)nc4)nc3n2CC(F)(F)F)C[C@H](C)N1C=O` [Example 116, 4-[2-(2-Aminopyrimidin-5-yl)-6-morpholin-4-yl-9-(2,2,2-trifluoroethyl)-9H-purin-8-yl]-cis-2,6-dimethylpiperazine-1-carboaldehyde], the GI50 in experiment [1] is no more than 5000 nM. Besides, the IC50 in experiment [2] was less than 10 nM.

With `CCC(=O)N1CCN(c2nc3c(N4CCOCC4)nc(-c4cnc(N)nc4)nc3n2CC(F)(F)F)CC1` [Example 117, 5-[6-Morpholin-4-yl-8-(4-propionylpiperazin-1-yl)-9-(2,2,2-trifluoroethyl)-9H-purin-2-yl]pyrimidin-2-amine], the GI50 in experiment [1] is no more than 5000 nM. Also, in experiment [2], the IC50 was less than 10 nM.

As to `CC(=O)N1CCN(c2nc3c(N4CCOCC4)nc(-c4cnc(N)nc4)nc3n2CC(F)(F)F)CC12CC2` [Example 119, 5-[8-(4-Acetyl-4,7-diazaspiro[2.5]oct-7-yl)-6-morpholin-4-yl-9-(2,2,2-trifluoroethyl)-9H-purin-2-yl]pyrimidin-2-amine], the GI50 in experiment [1] is no more than 5000 nM. In experiment [2], the half-maximal inhibitory concentration (IC50) fell in the range of 10 to 30 nM.

With `C[C@H]1COCCN1c1nc(-c2cnc(N)nc2)nc2c1nc(N1CCN(S(C)(=O)=O)CC1)n2CC(F)(F)F` [Example 127, 5-{6-[(3S)-3-Methylmorpholin-4-yl]-8-[4-(methylsulfonyl)piperazin-1-yl]-9-(2,2,2-trifluoroethyl)-9H-purin-2-yl}pyrimidin-2-amine], the GI50 in experiment [1] is no more than 5000 nM. Moreover, the IC50 in experiment [2] was less than 10 nM.

Regarding `CC(=O)N1CCN(c2nc3c(N4CCOC[C@@H]4C)nc(-c4cnc(N)nc4C)nc3n2CC2CC2)CC1` [Example 128, 5-{8-(4-acetylpiperazin-1-yl)-9-(cyclopropylmethyl)-6-[(3S)-3-methylmorpholin-4-yl]-9H-purin-2-yl}-4-methylpyrimidin-2-amine], the GI50 in experiment [1] was no more than 5000 nM. Also, in experiment [2], the concentration for half-maximal inhibition (IC50) is 100 to 500 nM.

On to `CC(=O)N1CCN(c2nc3c(N4CCOC[C@@H]4C)nc(-c4cnc(N)nc4)nc3n2CC(C)C)CC1` [Example 129, 5-{8-(4-Acetylpiperazin-1-yl)-9-isobutyl-6-[(3S)-3-methylmorpholin-4-yl]-9H-purin-2-yl}pyrimidin-2-amine], for which the GI50 in experiment [1] was no more than 5000 nM. The IC50 in experiment [2] is 10 to 30 nM.

`CC(C)Cn1c(N2CCN(C(=O)CO)CC2)nc2c(N3CCOC[C@@H]3C)nc(-c3cnc(N)nc3)nc21` [Example 130, 2-(4-{2-(2-Aminopyrimidin-5-yl)-9-isobutyl-6-[(3S)-3-methylmorpholin-4-yl]-9H-purin-8-yl}piperazin-1-yl)-2-oxoethanol]: the GI50 in experiment [1] was no more than 5000 nM. Besides, in experiment [2], the IC50 is less than 10 nM.

For the compound `CC(C)Cn1c(N2CCN(C(=O)[C@H](C)O)CC2)nc2c(N3CCOC[C@@H]3C)nc(-c3cnc(N)nc3)nc21` [Example 131, (2S)-1-(4-{2-(2-Aminopyrimidin-5-yl)-9-isobutyl-6-[(3S)-3-methylmorpholin-4-yl]-9H-purin-8-yl}piperazin-1-yl)-1-oxopropan-2-ol], the GI50 in experiment [1] was no more than 5000 nM. In addition, in experiment [2], the IC50 lay in the range of 10 to 30 nM.

Regarding `CC(C)Cn1c(N2CCN(C=O)CC2)nc2c(N3CCOC[C@@H]3C)nc(-c3cnc(N)nc3)nc21` [Example 132, 4-{2-(2-Aminopyrimidin-5-yl)-9-isobutyl-6-[(3S)-3-methylmorpholin-4-yl]-9H-purin-8-yl}piperazine-1-carboaldehyde], the GI50 in experiment [1] was no more than 5000 nM. Also, the 50% inhibitory concentration (IC50) in experiment [2] is 10 to 30 nM.

For the compound `CNc1ncc(-c2nc(N3CCOCC3)c3nc(N4CCN(C(C)=O)CC4)n(CC(F)(F)F)c3n2)cn1` [Example 134, 5-[8-(4-Acetylpiperazin-1-yl)-6-morpholin-4-yl-9-(2,2,2-trifluoroethyl)-9H-purin-2-yl]-N-methylpyrimidin-2-amine], in experiment [1], the GI50 was no more than 5000 nM. In addition, in experiment [2], the IC50 is less than 10 nM.

For the origin of these results see US8309546B2, “Morpholinopurine derivatives” (Daiichi Sankyo Company, Limited, priority 2008, dated 2012).
